Experimental data published in US7838238B2, “Method for screening anti-HIV Drugs and a diagnostic method of AIDS” (CellFree Sciences Co., Ltd., priority 2008, dated 2010).
Peptide text beside a SMILES is read from it. * marks the point of attachment. Cbz = O=C(OCc1ccccc1)*

System: intracellular Gag in SOCS1-siRNA HeLa cells
Experiment: Immunoblotting of intracellular Gag-GFP in SOCS1-siRNA HeLa cells treated with NH4Cl or MG132
Type: cell-based, human
Method: (F) HeLa cells were transfected with Cag-GFP and cotransfected with either control-siRNA or SOCS1-siRNA I. After 36 hours, the cells were treated with a mock solution, 10 mM NH4Cl or 10 μM MG132 for another 16 hours. Cell were then harvested and subjected to immunoblotting analysis with anti-GCF or anti-β-actin antibodies.

| Compound | level of intracellular Gag (10 μM MG132, 16 hours) | level of intracellular Gag (10 mM NH4Cl, 16 hours) |
| --- | --- | --- |
| CC(C)C[C@@H](C=O)NC(=O)[C@H](CC(C)C)NC(=O)[C@H](CC(C)C)NC(=O)OCc1ccccc1 [MG132] (Cbz-Leu-Leu-Leu-aldehyde) | not |  |
| Cl.N [NH4Cl] |  | significantly increased |
